Results: patent publication US7553505B2, “Health care product containing isoflavone aglycones and method of producing the same” (The Hong Kong University of Science and Technology, priority 2006, dated 2009)

How the values were obtained:
[1] = Solubility in alcohol against temperature (FIG. 2); type: physicochemical; settings: within the specific temperature range of FIG. 2
Source text: FIG. 2 is a diagram showing the solubilities of genistein and daidzein in methanol against temperature.
The first step of the method as described above is extraction. This process of grinding starting materials disrupts their tissue structure to enable the isoflavone fractions more easily extracted by the organic solvent. Then, an organic solvent, preferably ethanol, is used to recover isoflavones based on the high solubilities and steadiness of isoflavones in the selected solvents. […] Ethanol (edible alcohol) is preferred in this invention to ensure the isoflavone product will not endanger human health even with the remains of solvent. The extraction is carried out at a temperature ranging from 40 to 90° C. for 2-24 hrs, with the material ratio (volume:weight) of solvent to flour between 1:1 and 10:1 (mL:g).

[2] = Mitchell et al., 1998; Setchell et al., 2003; cited from earlier work

## O=c1c(-c2ccc(O)cc2)coc2cc(O)cc(O)c12 [genistein, Genistein]
[1]
  solubility in alcohol including methanol and ethanol versus temperature: increase evidently with increasing temperature
[2]
  biological activities among the twelve soy isoflavones: highest biological activities
